# US10968188B2, “Benzothiazol compounds and methods using the same for treating neurodegenerative disorders” (1ST Biotherapeutics, Inc., priority 2017, dated 2021)
# Legend:
# [1] = system: α-synuclein PFF induced PD mice; test: Pole test in α-synuclein PFF induced PD mice; type: in vivo
# Aβ25-35 induced AD mice [2] = test: Y-maze spontaneous alternation in Aβ25-35 induced AD mice; type: in vivo; conditions: orally once daily for 10 days; Example 4 1, 3 and 10 mg/kg, nilotinib 3 mg/kg
# Aβ25-35 induced AD mice [3] = test: Step-through passive avoidance (STPA) test in Aβ25-35 induced AD mice; type: in vivo; conditions: orally once daily for 10 days; Example 4 1, 3 and 10 mg/kg, nilotinib 3 mg/kg
# lipid peroxidation = test: Lipid peroxidation in hippocampus homogenates of Aβ25-35 induced AD mice; type: in vivo; conditions: once daily oral dosing of 3 mg/kg and 10 mg/kg
# From the text: Y-maze test as a behavioral test was used to assess memory function and the willingness of rodents to explore new environments 10 Days after ICV injection of oligomeric Aβ25-35 peptide, the hippocampus was dissected out. And lipid peroxidation level was quantified in the hippocampus homogenates. ICV injection of oligomeric Aβ25-35 peptide induced lipid peroxidation, a marker for oxidative stress. […] (FIG. 7)
# [4] = Oral dose pharmacokinetic study in mice
PK profile in mice [4],SMILES,"increased pole climb down time (sec) by α-synuclein PFF injection ([1]; 0.3, 1, 3 and 10 mg/kg orally once daily for 5 months)","deficits of alternation behavior (spatial working memory, Y-maze) (Aβ25-35 induced AD mice [2])",contextual long-term memory deficits (STPA) (Aβ25-35 induced AD mice [3]),lipid peroxidation in hippocampus (lipid peroxidation),pole climb down time ([1]; 10 mg/kg orally once daily for 5 months)
good PK profiles,Cc1ccncc1-c1ccc2nc(NC(=O)[C@@H]3C[C@@H]3F)sc2c1 [Example 4],recovered by treatment of Example 4 in a dose-dependent manner,very significantly and fully alleviated,very significantly and fully alleviated,completely inhibited,
,"Cc1cn(-c2cc(NC(=O)c3ccc(C)c(Nc4nccc(-c5cccnc5)n4)c3)cc(C(F)(F)F)c2)cn1 [Nilotinib, nilotinib, reference compound]",,partially alleviated,,,slight improvement
